Source: patent US10889812B2, “Short non-coding protein regulatory RNAs (sprRNAs) and methods of use” (University of Maryland, Baltimore, priority 2014, dated 2021)
Entries after “also recorded” stand apart in the source; their conditions may differ.

How the values were obtained:
[1] = system: H1792 cells; assay: Trans-well invasion assay; type: cell-based, human; conditions: H1792, vs control RNA oligonucleotides
From the text: We then tested the potential impact of piR-L-163 in cell migration and invasion, two of the properties involving ERM's biological functions (Fehon, R. G., Mclatchey, A. I. & Bretscher, A. Organizing the cell cortex: the role of ERM proteins. Nat Rev Mol Cell Biol. 11, 276-287 (2010); Hunter, K. W. Ezrin, a key component in tumor metastasis. Trends Mol. Med. 10, 201-204 (2004); Luo, Y. et al. Recognition of CD146 as an ERM-binding protein offers novel mechanisms for melanoma cell migration. Oncogene 31, 306-321 (2013); Clucas, J. & Valderrama, F. ERM proteins in cancer progression. J Cell Sci. 128, 1253 (2015)).
Briefly, 24 hrs after transfection, 6×10^4 cells were placed in the upper chamber of Matrigel Invasion Chambers (BD Bioscience) with growth factor-free Keratinocyte-SFM and the bottom chamber were exposed to Keratinocyte-SFM medium supplemented with L-Glutamine, prequalified human recombinant EGF 1-53 and BPE. Invading cells were evaluated after 12 hrs according to the manufacturer's instruction. The numbers of invading cells were adjusted 15% downwards for Ant-163 treated cells or 15% upwards for piR-L-163 treated cells to compensate the differences for the proliferation rates.

[2] = system: p-ERM; assay: IP with anti-p-ERM antibody followed by RT-PCR in transfected H1792 cells; type: binding, human; conditions: H1792 cells transfected with the oligonucleotide
From the text: We next wanted to determine the site critical for piR-L-163's binding toP-ERM. We first analyzed the piR-L-163 sequence and identified a candidate motif “UUNNUUUNNUU” (SEQ ID NO:495) with potentially critical for the binding (FIG. 5a). We then generated 5 mutant forms of piR-L-163 named as M1-M5 (FIG. 5b and Table 3) to test their potential impact on the p-ERM binding. For this experiment, we used H1792 cells because these cells expressed extremely low level of endogenous piR-L-163 but considerable amount of p-ERM (FIG. 5c and FIG. 11a). H1792 cells were transfected with Scr (control), Ant-163, piR-L-163 (WT), or Mutant 1 (M1) to Mutant 5 (M5) RNA oligonucletides, respectively. An anti-p-ERM antibody was used for IP followed by RT-PCR using primers specific for Scr, Ant-163, piR-L-163, or M1-M5 (Table 6) to detect the corresponding oligonucleotides.
To amplify sncRNAs, we added an adaptor to the 3′ end, a process including adaptor ligation, RT and PCR (de Vanssay, A. et al. Paramutation in Drosophila linked to emergence of a piRNA-producing locus. Nature 490, 112-115 (2012); Li, Z. et al. Characterization of viral and human RNAs smaller than canonical MicroRNAs. J Virol. 83, 12751-12758 (2009)). For adaptor ligation, the adaptor /5′rapp/CTGTAGGCACCATCAAT/3′ddc/ (SEQ ID NO:499) with both 5′ and 3′ modification was used. Briefly, mixed 1 μl (10 pmol, ˜55 ng) of RNA 3′ adaptor and 4.4 μl (˜100 ng) of purified sncRNAs in a 1.5 ml EP tube; Incubated at 72° C. for 2 min, then placed on ice immediately and kept it on ice for at least 1 min; Added the following reagents (New England Biolabs) to the above tube: 0.8 μl 10×RNA ligase buffer, 1 μl RNase inhibitor, and 1 μl single strand RNA ligase; Mixed it well and incubated at 37° C. for 1 hr, then terminated the reaction at 65° C. for 15 min. For RT, SuperScript™ III First-Strand Synthesis System (Invitrogen) was used according to the manufacturer's instructions with gene specific primer (5′-[…]-3′) (SEQ ID NO:500). For PCR, a common reverse primer (5′-[…]-3′) (SEQ ID NO:501) and primers specific for individual sncRNAs (Table 6). Amplification conditions were denaturation at 95° C. for 30 s (5 min for the first cycle), annealing at 60° C. for 20 s and extension at 72° C. for 20 s (2 min for the last cycle) for 25 cycles.
For IP using anti-human Moesin or p-ERM antibodies, anti-Moesin (Clone Q480, Catalog No. 3150, Cell Signaling) or anti-p-ERM (Clone 41A3, Catalog No. 3149, Cell Signaling) antibodies were used and a rabbit IgG was used as a control. Briefly, Saturated protein G agarose beads (Sigma-Aldrich) with rabbit IgG, anti-Moesin or anti-p-ERM antibodies, respectively (1 μg antibody was used for 4 μl agarose beads) at 4° C. for 3 hrs, centrifuged at 2,200×g for 5 min, and discarded the upper aqueous phase; (2) Protein extracts prepared from cells using lysis buffer (20 mM Tris-cl, pH7.6, 150 mM NaCl, 20 mM KCl, 1.5 mM MgCl2, 0.5% NP-40, 0.5 mM PMSF) were pre-cleared using protein G agarose at 4° C. for 2 hrs, centrifuged at 2,200×g for 5 min, and transferred the upper aqueous phase to above tubes with agarose beads saturated with antibodies, respectively; Kept the tubes rotating overnight at 4° C., centrifuged at 2,200×g for 5 min, and washed the beads with lysis buffer twice; Extracted total RNAs from beads using Trizol Reagent (Life Technologies); Amplification of piR-L-163 or its mutants was performed according to the steps described in the “RT-PCR” section.

With “Ant-163: DNA sequence antisense to piR-L-163, SEQ ID NO:496, 5′-GGTCAGAGAATCAAAGTAACATCATGATAT-3′ (DNA, backbone and methylation of C not given here)” the invasion capability [1] was “no impact” and the “oligonucleotide detected by RT-PCR in anti-p-ERM IP products (binding to p-ERM)” value [2] was “no RT-PCR band could be detected”.

With “piR-L-163: sprRNA, SEQ ID NO:282; piRNA-L aligned to intron 10 of LAMC2; AUAUCAUGAUGUUACUUUGAUUCUCUGACC with 3′ 2′-O-methylation (listed as RNA, chemistry not fully specified; listed as Homo sapiens)” the invasion capability [1] was “significantly decreased invasion capability; also recorded: significantly reduced the number of invading cells” and the “oligonucleotide detected by RT-PCR in anti-p-ERM IP products (binding to p-ERM)” value [2] was “strong RT-PCR band was detected”.
